pIC50: −log10 of the molar value. Each block holds one substance with its values, some of them ahead of it. The source made the active and inactive calls. The rule behind the calls is not given here. Numbered stars: 1 amine (or outer) side, 2 acyl side, 3 side chain; on linkers, the order of the positions; unused ones are H or OH. Bridge positions count the residues as written; N and C are the ends. Square brackets hold non-standard residues; d marks the D form. I, II: the chains in the order shown. X1 = O=C([C@H](Cc1c[nH]c2ccccc12)N(c1ccc([N+](=O)[O-])c2nonc12)[*:1])[*:2]
What was measured:
HepG2 [1] = experiment: Cytotoxicity against human HepG2 cells assessed as reduction in cell viability measured after 24 hrs by CCK-8 assay; assay type: functional, cell-based; details: HepG2, 24 h
[2] = Cytotoxicity against human L02 cells assessed as reduction in cell viability measured after 24 hrs by CCK-8 assay; assay type: toxicity, cell-based
A549 [3] = experiment: Cytotoxicity against human A549 cells assessed as reduction in cell viability measured after 24 hrs by CCK-8 assay; assay type: functional, cell-based; details: A549, 24 h
[4] = Cytotoxicity against human BEAS-2B cells assessed as reduction in cell viability measured after 24 hrs by CCK-8 assay; assay type: toxicity, cell-based
HepG2 [5] = experiment: Induction of morphological changes in human HepG2 cells assessed as appearance of broken cell structure at 15 uM measured after 24 hrs by high-throughput microscopy; assay type: functional, cell-based
L02 = experiment: Induction of apoptosis in human L02 cells assessed as reduction in viable cells at 15 uM measured after 24 hrs by Annexin V-FITC/propidium iodide staining based flow cytometry; assay type: toxicity, cell-based; details: l02, 24 h
BEAS-2B = experiment: Induction of apoptosis in human BEAS-2B cells assessed as reduction in viable cells at 15 uM measured after 24 hrs by Annexin V-FITC/propidium iodide staining based flow cytometry; assay type: toxicity, cell-based
HepG2 [6] = experiment: Induction of apoptosis in human HepG2 cells assessed as appearance of apoptotic bodies at 15 uM measured after 24 hrs by transmission electron microscopy; assay type: functional, cell-based
HepG2 [7] = experiment: Induction of apoptosis in human HepG2 cells assessed as chromatin condensation at 15 uM measured after 24 hrs by transmission electron microscopy; assay type: functional, cell-based
HepG2 [8] = experiment: Induction of apoptosis in human HepG2 cells assessed as swollen mitochondria at 15 uM measured after 24 hrs by transmission electron microscopy; assay type: functional, cell-based
HepG2 [9] = experiment: Induction of apoptosis in human HepG2 cells assessed as hollow mitochondria at 15 uM measured after 24 hrs by transmission electron microscopy; assay type: functional, cell-based
HepG2 [10] = experiment: Induction of apoptosis in human HepG2 cells assessed as cell membrane disruption at 15 uM measured after 24 hrs by transmission electron microscopy; assay type: functional, cell-based
HepG2 [11] = experiment: Induction of necrosis in human HepG2 cells assessed as cell membrane disruption at 30 uM measured after 24 hrs by transmission electron microscopy; assay type: functional, cell-based
HepG2 [12] = experiment: Induction of necrosis in human HepG2 cells assessed as releasing of large number of cell content into extracellular space at 30 uM measured after 24 hrs by transmission electron microscopy; assay type: functional, cell-based
A549 [13] = experiment: Induction of apoptosis in human A549 cells assessed as appearance of apoptotic bodies at 15 uM measured after 24 hrs by transmission electron microscopy; assay type: functional, cell-based
A549 [14] = experiment: Induction of apoptosis in human A549 cells assessed as chromatin condensation at 15 uM measured after 24 hrs by transmission electron microscopy; assay type: functional, cell-based
A549 [15] = experiment: Induction of apoptosis in human A549 cells assessed as swollen mitochondria at 15 uM measured after 24 hrs by transmission electron microscopy; assay type: functional, cell-based
A549 [16] = experiment: Induction of apoptosis in human A549 cells assessed as hollow mitochondria at 15 uM measured after 24 hrs by transmission electron microscopy; assay type: functional, cell-based
A549 [17] = experiment: Induction of apoptosis in human A549 cells assessed as cell membrane disruption at 15 uM measured after 24 hrs by transmission electron microscopy; assay type: functional, cell-based
A549 [18] = experiment: Induction of necrosis in human A549 cells assessed as cell membrane disruption at 30 uM measured after 24 hrs by transmission electron microscopy; assay type: functional, cell-based
A549 [19] = experiment: Induction of necrosis in human A549 cells assessed as releasing of large number of cell content into extracellular space at 30 uM measured after 24 hrs by transmission electron microscopy; assay type: functional, cell-based
A549 [20] = experiment: Induction of cell membrane disruption in human A549 cells assessed as increase in LDH release at 15 uM measured after 1 hr by LDH releasing reagent based assay
HepG2 [21] = experiment: Induction of cell membrane disruption in human HepG2 cells assessed as increase in LDH release at 15 uM measured after 1 hr by LDH releasing reagent based assay
Proteasome = experiment: Inhibition of proteasome activity in human A549 cells measured after 4 hrs by luciferase assay; details: dose 5-30 µM, DDE = dose-dependent effect
HepG2 [22] = experiment: Induction of ROS generation in human HepG2 cells at 10 to 30 uM measured after 4 hrs by DCFH-DA reagent based fluorescence assay; assay type: functional, cell-based; details: dose 10-30 µM
HepG2 [23] = experiment: Antitumor activity against human HepG2 cells xenografted in sc dosed BALB/c nude mouse assessed as tumor growth inhibition administered at 1 day interval for 9 days; assay type: functional, organism-based; details: dose 25-50 µM, time 9.0 day, DDE = dose-dependent effect
HepG2 [24] = experiment: Antitumor activity against human HepG2 cells xenografted in BALB/c nude mouse assessed as reduction in tumor volume at 25 to 50 uM, sc administered at 1 day interval for 9 days; assay type: functional, organism-based; details: dose 25-50 µM, time 9.0 day
[25] = Toxicity in HepG2 cell xenografted BALB/c nude mouse assessed as change in body weight at 25 to 50 uM, sc administered at 1 day interval for 9 days; assay type: organism-based; details: in vivo, 216 h, dose 25-50 µM, time 9 day
HepG2 [26] = experiment: Antitumor activity against human HepG2 cells xenografted in BALB/c nude mouse assessed as appearance of fuzzy boundary region at 25 to 50 uM, sc administered at 1 day interval for 9 days and measured on day 11 by H and E staining based histological analysis; assay type: functional, organism-based; details: dose 25-50 µM, time 11.0 day
HepG2 [27] = experiment: Antitumor activity against human HepG2 cells xenografted in BALB/c nude mouse assessed as missing nuclei at 25 to 50 uM, sc administered at 1 day interval for 9 days and measured on day 11 by H and E staining based histological analysis; assay type: functional, organism-based; details: dose 25-50 µM, time 11.0 day
HepG2 [28] = experiment: Antitumor activity against human HepG2 cells xenografted in BALB/c nude mouse assessed as induction of apoptosis at 25 to 50 uM, sc administered at 1 day interval for 9 days and measured on day 11 by TUNEL staining based assay; assay type: functional, organism-based; details: dose 25-50 µM, time 11.0 day
[29] = Drug uptake in human HepG2 cells at 15 uM measured after 1 hr by Hoechst 33258 staining based confocal laser scanning microscopy; assay type: ADME, cell-based; details: hepg2, 1 h
[30] = Drug uptake in human A549 cells at 15 uM measured after 1 hr by Hoechst 33258 staining based confocal laser scanning microscopy; assay type: ADME, cell-based; details: a549, 1 h
[31] = Drug uptake in human L02 cells at 15 uM measured after 1 hr by Hoechst 33258 staining based confocal laser scanning microscopy; assay type: ADME, cell-based; details: l02, 1 h
[32] = Drug uptake in human BEAS-2B cells at 15 uM measured after 1 hr by Hoechst 33258 staining based confocal laser scanning microscopy; assay type: ADME, cell-based
[33] = Drug uptake in human HepG2 cells at 15 uM measured after 1 hr by Hoechst 33258 staining based flow cyotmetry; assay type: ADME, cell-based; details: hepg2, 1 h
[34] = Drug uptake in human A549 cells at 15 uM measured after 1 hr by Hoechst 33258 staining based flow cyotmetry; assay type: ADME, cell-based; details: a549, 1 h
[35] = Drug uptake in human L02 cells at 15 uM measured after 1 hr by Hoechst 33258 staining based flow cyotmetry; assay type: ADME, cell-based; details: l02, 1 h
[36] = Drug uptake in human BEAS-2B cells at 15 uM measured after 1 hr by Hoechst 33258 staining based flow cyotmetry; assay type: ADME, cell-based
[37] = Drug uptake in human HepG2 cells membrane at 15 uM measured after 15 mins by Hoechst 33258/Lyso-Tracker Red staining based flow cytometry; assay type: ADME, cell membranes, Cell membrane; details: hepg2, 0.25 h
[38] = Drug uptake in endosome of human HepG2 cells at 15 uM measured after 30 mins by Hoechst 33258/Lyso-Tracker Red staining based flow cytometry; assay type: ADME; details: hepg2, 0.5 h
[39] = Drug uptake in cytoplasm of human HepG2 cells at 15 uM measured after 60 mins by Hoechst 33258/Lyso-Tracker Red staining based flow cytometry; assay type: ADME, subcellular; details: hepg2, 1 h
[40] = Drug uptake in human HepG2 cells at 15 uM measured after 60 to 120 mins by Hoechst 33258/Lyso-Tracker Red staining based flow cytometry; assay type: ADME, cell-based; details: hepg2, 15 µM, time 60-120 min

- inhibition (Proteasome): Dde
Substance: I: H-WELVVLGKLLLHHLLHHLLHHGLRKRLRKFRNKIKEK / II: H-GLRKRLRKFRNKIKEK-NH2 (amide I:C-II:4)
- pIC50 (HepG2 [1]): 5.11
- IC50 at 24 h [2]: 11.1 µM
- pIC50 (A549 [3]): 5.19
- IC50 at 24 h [4]: 11.2 µM
- Activity (HepG2 [5]): Active
- Activity (L02): Non-Toxic
- Activity (BEAS-2B): Non-Toxic
- Activity (HepG2 [6]): Active
- Activity (HepG2 [7]): Active
- Activity (HepG2 [8]): Active
- Activity (HepG2 [9]): Active
- Activity (HepG2 [10]): Active
- Activity (HepG2 [11]): Active
- Activity (HepG2 [12]): Active
- Activity (A549 [13]): Active
- Activity (A549 [14]): Active
- Activity (A549 [15]): Active
- Activity (A549 [16]): Active
- Activity (A549 [17]): Active
- Activity (A549 [18]): Active
- Activity (A549 [19]): Active
- Activity (A549 [20]): Active
- Activity (HepG2 [21]): Active
- Activity (HepG2 [22]): Active
- TGI (HepG2 [23]): Dde
- Activity (HepG2 [24]): Active
- Activity [25]: Non-Toxic
- Activity (HepG2 [26]): Active
- Activity (HepG2 [27]): Active
- Activity (HepG2 [28]): Active

- Drug uptake [29]: Active
- Drug uptake [30]: Active
- Drug uptake [31]: Active
- Drug uptake [32]: Active
- Drug uptake [33]: Active
- Drug uptake [34]: Active
- Drug uptake [35]: Active
- Drug uptake [36]: Active
- Drug uptake [37]: Active
- Drug uptake [38]: Active
- Drug uptake [39]: Active
- Drug uptake [40]: Active
Substance: I: H-[X1]ELVVLGKLLLHHLLHHLLHHGLRKRLRKFRNKIKEK / II: H-GLRKRLRKFRNKIKEK-NH2 (amide I:C-II:4)

Reference: ChEMBL document CHEMBL5120831, “Pep5-based antitumor peptides containing multifunctional fragments with enhanced activity and synergistic effect” (Eur J Med Chem, 2022)
